Experimental data taken from paper PMC3728092, “Improvement of Pharmacokinetics Behavior of Apocynin by Nitrone Derivatization: Comparative Pharmacokinetics of Nitrone-Apocynin and its Parent Apocynin in Rats” (PLoS ONE, 2013).
“And” between values parts separate entries of the source, which are not always exact repeats. Equal entries are not always repeated. Where two headings read alike, the source gives them in different places. One block for each molecule: values may come before it.

Columns and labels:
[1] = system: gp91^phox subunit of NADPH-oxidase; parameters: method as in earlier work; details: RAW 264.7 macrophage cells; cited from earlier work
[2] = system: LPS-induced acute lung injury; parameters: method as in earlier work; details: rat model of LPS-induced acute lung injury; cited from earlier work
[3] = Single-dose pharmacokinetic study (intravenous and intragastric) with HPLC-UV plasma assay, non-compartmental analysis; format: in vivo, Sprague-Dawley rats; details: rat; for half-life / bioavailability / Cmax / Tmax / MRT last / clearance: male, Sprague-Dawley, plasma; for bioavailability: oral, read-out: F (absolute oral bioavailability); for MRT last: read-out: MRT0–t (converted)
Protocol: (§1) Male Sprague-Dawley rats, weighing 210–290 g, were fasted for 12 h but with free access to water before dosing. The rats were randomly divided into groups of intravenous AN-1, intravenous apocynin, intragastric AN-1 and intragastric apocynin. […] Apocynin was dissolved in a mixture of propylene glycol-saline (4∶6, v/v). The single-dose pharmacokinetic study was performed. For AN-1, three different doses (20, 40 and 80 mg/kg) were administered for intravenous study (n = 6–8) and one dose (40 mg/kg) was given for intragastric study (n = 6). For apocynin, 50 mg/kg, an equimolar dose to 80 mg/kg (0.302 mmol/kg) of AN-1, was administered for both intravenous (n = 8) and intragastric studies (n = 6). A day before dosing, a cannula was introduced into jugular vein on rats for intravenous dosing and blood sampling in all groups.
Blood samples (0.4 mL) was collected via jugular vein into heparinized tubes at 0 min (before dosing) and 5, 10, 15, 30, 45, 60, 90, 120, 180, 240, 360, 480, 600, 720, 840 min for AN-1 and at 0 min (before dosing) and 2, 4, 6, 10, 15, 20, 30, 40, 50, 60 min for apocynin after intravenous and intragastric dosing. An equal volume of heparinized saline was used to flush the catheter immediately after each blood withdrawal to prevent blood clotting. The blood samples were centrifuged immediately at 10,000 rpm for 5 min at 4°C, and then the plasma was transferred and stored at −20°C until analysis.
The profiles of analyte concentrations in rat plasma versus time were analyzed to calculate pharmacokinetic parameters by a non-compartmental model using DAS software (version 3.0.1, Chinese Mathematical Pharmacology Society).

[4] = system: RAW 264.7 macrophage cells; parameters: method as in earlier work; details: RAW 264.7 cells, compared to parent apocynin, cited from earlier work
[5] = Solubility in water (remark on dosing vehicle); format: physicochemical
Protocol: as §1

[6] = Stability of analytes in rat plasma under different storage conditions; format: in vitro ADME; details: for Accuracy, post-preparative stability: post-preparative QC samples; for Accuracy, post-preparative stability / Accuracy, short-term stability / Accuracy, freeze-thaw stability / Accuracy, long-term stability: n = 5; for time post-preparative solutions stable: room temperature; for Accuracy in stability test (summary) / Accuracy, short-term stability / Accuracy, freeze-thaw stability / Accuracy, long-term stability: rat plasma; for Accuracy in stability test (summary): long-term −20°C, short-term room temperature and three freeze-thaw cycles; for Accuracy, freeze-thaw stability: three freeze-thaw cycles; for Accuracy, long-term stability: −20°C for 30 days
Protocol: The stability of analytes in rat plasma stored under different conditions was assessed at low, medium and high QC concentrations, respectively. The conditions included long-term storage at −20°C for 30 days, short-term storage at room temperature (8 h for AN-1, 24 h for apocynin), three freeze-thaw cycles treatment, and post-preparative QC samples stored at room temperature (8 h for AN-1, 24 h for apocynin). The concentrations measured from the above samples were compared with the nominal values of QC plasma samples. Samples were concluded stable and applicable to routine analysis if the deviation of the observed concentration was less than ±15% from the nominal value.

[7] = intravenous and oral (intragastric), range over all intravenous and intragastric dose groups, read-out: terminal elimination half-life
[8] = po, intragastric, 40 mg/kg, n = 6
[9] = room temperature 8 h, 0.2 µg/mL
[10] = room temperature 8 h, 250 µg/mL
[11] = room temperature 8 h, 400 µg/mL
[12] = po, intragastric, 50 mg/kg, n = 6
[13] = room temperature 24 h, 0.4 µg/mL
[14] = room temperature 24 h, 40 µg/mL
[15] = room temperature 24 h, 80 µg/mL

SMILES: COc1cc(C(C)=O)cc(/C=[N+](\[O-])C(C)(C)C)c1O [AN-1, (Z)-N-(5-Acetyl-2-hydroxy-3-methoxybenzylidene)-2-methylpropan-2-amine oxide]
expression of gp91^phox induced by t-BHP [1]: depressing the high expression
activity of superoxide dismutase in the lung of model rats [2]: significantly increased
treatment effect for the lung injury of model rats [2]: greater treatment effect than apocynin
half-life [3, 7]: 2.71 to 3.35 h
bioavailability ([3]; intragastric 40 mg/kg vs intravenous 40 mg/kg): 78%
Cmax [3, 8]: 80 ± 20 µM
Tmax [3, 8]: 0.43 h
MRT last [3, 8]: 4.85 h
half-life ([3]; po, intragastric, 40 mg/kg, n = 6, read-out: T1/2): 3.35 ± 1.62 h
clearance ([3]; intravenous, 20 mg/kg, n = 8): 5 ± 1 mL/min/kg
MRT last ([3]; intravenous, 20 mg/kg, n = 8): 2.94 h
half-life ([3]; intravenous, 20 mg/kg, n = 8, read-out: T1/2): 2.86 ± 1.33 h
clearance ([3]; intravenous, 40 mg/kg, n = 6): 6 ± 1 mL/min/kg
MRT last ([3]; intravenous, 40 mg/kg, n = 6): 3.22 h
half-life ([3]; intravenous, 40 mg/kg, n = 6, read-out: T1/2): 2.71 ± 0.938 h
half-life ([3]; intravenous, 80 mg/kg (0.302 mmol/kg), n = 8, read-out: T1/2): 3 ± 0.748 h
clearance ([3]; intravenous, 80 mg/kg, n = 8): 5 ± 1 mL/min/kg
MRT last ([3]; intravenous, 80 mg/kg, n = 8): 3.42 h
exposure in the systemic circulation (AUC0–t) relative to apocynin ([3]; equimolar intravenous dose 0.302 mmol/kg): 25 fold
AUC0–t ([3]; intragastric, 40 mg/kg, n = 6): 20.68 ± 3.95 mmol·min/L
CL ([3]; intragastric, 40 mg/kg, n = 6): 7 ± 1 mL/min/kg
V ([3]; intragastric, 40 mg/kg, n = 6): 1.95 ± 0.90 L/kg
AUC0–t ([3]; intravenous, 20 mg/kg, n = 8): 14.88 ± 1.31 mmol·min/L
V ([3]; intravenous, 20 mg/kg, n = 8): 1.20 ± 0.54 L/kg
AUC0–t ([3]; intravenous, 40 mg/kg, n = 6): 26.51 ± 5.12 mmol·min/L
V ([3]; intravenous, 40 mg/kg, n = 6): 1.27 ± 0.32 L/kg
AUC0–t ([3]; intravenous, 80 mg/kg (0.302 mmol/kg), n = 8, 80 mg/kg): 61.89 mmol·min/L and 61.89 ± 7.59 mmol·min/L
V ([3]; intravenous, 80 mg/kg, n = 8): 1.20 ± 0.32 L/kg
protection against t-BHP inducing oxidative cytotoxicity [4]: protected
ROS production ([4]; t-BHP): attenuated the ROS production markedly
solubility in water [5]: poor solubility in water
Accuracy, post-preparative stability [6, 9]: 88.61±0.58%
Accuracy, post-preparative stability [6, 10]: 88.14±0.84%
Accuracy, post-preparative stability [6, 11]: 91.96±1.51%
time post-preparative solutions stable [6]: at least 8 h
Accuracy in stability test (summary) [6]: higher than 90%
Accuracy, short-term stability [6, 9]: 89.96±0.31%
Accuracy, short-term stability [6, 10]: 91.99±1.37%
Accuracy, short-term stability [6, 11]: 91.46±0.96%
Accuracy, freeze-thaw stability ([6]; 0.2 µg/mL): 94.79±0.46%
Accuracy, freeze-thaw stability ([6]; 250 µg/mL): 95.56±0.95%
Accuracy, freeze-thaw stability ([6]; 400 µg/mL): 96.33±0.98%
Accuracy, long-term stability ([6]; 0.2 µg/mL): 92.98±1.91%
Accuracy, long-term stability ([6]; 250 µg/mL): 94.74±2.43%
Accuracy, long-term stability ([6]; 400 µg/mL): 91.92±0.86%

half-life [3, 7]: 0.0983 to 0.102 h
bioavailability ([3]; intragastric 50 mg/kg vs intravenous 50 mg/kg): 2.8%
Cmax [3, 12]: 8 ± 2 µM
Tmax [3, 12]: 0.0883 h
MRT last [3, 12]: 0.135 h
half-life ([3]; po, intragastric, 50 mg/kg, n = 6, read-out: T1/2): 0.0983 ± 0.03 h
half-life ([3]; intravenous, 50 mg/kg (0.302 mmol/kg), n = 8, read-out: T1/2): 0.102 ± 0.015 h
clearance ([3]; intravenous, 50 mg/kg, n = 8): 120 ± 20 mL/min/kg
MRT last ([3]; intravenous, 50 mg/kg, n = 8): 0.117 h
AUC0–t ([3]; intragastric, 50 mg/kg, n = 6): 0.07 ± 0.01 mmol·min/L
CL ([3]; intragastric, 50 mg/kg, n = 6): 3670 ± 350 mL/min/kg
V ([3]; intragastric, 50 mg/kg, n = 6): 31.46 ± 12.14 L/kg
AUC0–t ([3]; intravenous, 50 mg/kg (0.302 mmol/kg), n = 8, 50 mg/kg): 2.49 ± 0.46 mmol·min/L
AUC0–t ([3]; intravenous, 50 mg/kg (0.302 mmol/kg), n = 8, listed as apocynin, 50 mg/kg): 2.49 mmol·min/L
V ([3]; intravenous, 50 mg/kg, n = 8): 1.09 ± 0.30 L/kg
Accuracy, post-preparative stability [6, 13]: 98.34±6.26%
Accuracy, post-preparative stability [6, 14]: 94.57±0.60%
Accuracy, post-preparative stability [6, 15]: 92.51±1.43%
time post-preparative solutions stable [6]: at least 8 h
Accuracy in stability test (summary) [6]: higher than 90%
Accuracy, short-term stability [6, 13]: 102.47±6.10%
Accuracy, short-term stability [6, 14]: 95.52±1.01%
Accuracy, short-term stability [6, 15]: 94.11±1.35%
Accuracy, freeze-thaw stability ([6]; 0.4 µg/mL): 102.87±1.62%
Accuracy, freeze-thaw stability ([6]; 40 µg/mL): 95.48±0.69%
Accuracy, freeze-thaw stability ([6]; 80 µg/mL): 93.60±1.79%
Accuracy, long-term stability ([6]; 0.4 µg/mL): 102.17±0.87%
Accuracy, long-term stability ([6]; 40 µg/mL): 95.18±0.34%
Accuracy, long-term stability ([6]; 80 µg/mL): 94.09±0.99%
SMILES: COc1cc(C(C)=O)ccc1O [Apocynin, 4-hydroxy-3-methoxyacetophenone]
